Laboratory results as given in publication PMC12775434, “Ultra-large virtual screening unveils potent agonists of the neuromodulatory orphan receptor GPR139” (Nature Communications, 2025).
Several values for one entry are separate records, joined by “and”; a condition that tells them apart may be missing. Identical values can stand only once. Like-named read-outs stand apart in the source and are kept apart here.

How the values were obtained:
Format in all cases: cell-based
[1] = target: T1, GPR139 (Homo sapiens, UniProt Q6DWJ6); test: Ca2+ mobilization assay, agonist mode, stable GPR139-CHOk1 cell line; conditions: for Emax: normalized to Lundbeck Cmp 1a, read-out: Emax (%) Ca2+
T1 sequence (Q6DWJ6 1-353): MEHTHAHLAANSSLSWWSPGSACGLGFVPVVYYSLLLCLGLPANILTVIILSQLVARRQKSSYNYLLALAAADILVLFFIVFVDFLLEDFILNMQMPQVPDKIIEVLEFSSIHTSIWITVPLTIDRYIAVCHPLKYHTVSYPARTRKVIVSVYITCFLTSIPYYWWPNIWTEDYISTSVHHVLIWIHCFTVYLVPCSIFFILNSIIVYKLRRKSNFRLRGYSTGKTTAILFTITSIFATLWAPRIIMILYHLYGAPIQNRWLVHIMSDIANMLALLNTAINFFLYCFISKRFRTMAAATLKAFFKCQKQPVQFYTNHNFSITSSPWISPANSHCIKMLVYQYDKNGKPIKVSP
How it was run: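 Agonist activity of compounds is assessed in stably transfected CHO-K1 cells using the calcium dye Fluo-4 at 37 °C in HEPES-buffered HBSS (pH 7.4). Efficacy is expressed relative to the reference agonist Lundbeck Cmp 1a, set as 100%.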

[2] = target: T1, GPR139; test: Ca2+ mobilization assay, antagonist mode (EC80 800 nM Lundbeck Cmp 1a after 20 min preincubation), GPR139-CHOk1
How it was run: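 Antagonist mode: 800 nM (EC80) reference agonist Lundbeck Cmp 1a added following 20 min pre-incubation with 10 µM compound. GPR139-CHOk1 cells, Fluo-4 dye, probenecid-containing HEPES buffer pH 7.4; intracellular Ca2+ measured at 37 °C (ex 485, em 525 nm).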

[3] = target: T2, human muscarinic acetylcholine M1 receptor (M1R) (Homo sapiens, UniProt P11229); test: Ca2+ mobilization counter-screen in M1R-CHOk1 cells;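 also: 10 µM test compound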
T2 sequence (P11229 1-460): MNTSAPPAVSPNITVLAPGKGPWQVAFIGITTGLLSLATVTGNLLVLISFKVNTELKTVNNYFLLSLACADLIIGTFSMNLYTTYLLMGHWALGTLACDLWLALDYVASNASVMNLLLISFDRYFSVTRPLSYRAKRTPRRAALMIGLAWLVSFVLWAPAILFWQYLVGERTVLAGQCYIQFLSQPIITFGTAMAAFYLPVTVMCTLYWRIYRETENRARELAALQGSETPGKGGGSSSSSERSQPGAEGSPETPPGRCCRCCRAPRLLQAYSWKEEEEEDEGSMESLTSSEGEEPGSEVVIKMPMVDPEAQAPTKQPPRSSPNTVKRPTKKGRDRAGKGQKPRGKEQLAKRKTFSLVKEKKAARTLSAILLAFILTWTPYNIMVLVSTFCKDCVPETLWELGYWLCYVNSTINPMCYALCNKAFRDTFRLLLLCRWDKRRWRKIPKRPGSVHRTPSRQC
How it was run: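 Fluorescence (ex 485 nm, em 525 nm) recorded at 37 °C after automated compound addition to CHO-K1 cells stably expressing M1R. Cells were dye-loaded with 2 µM Fluo-4 AM for 1 h at 37 °C, with 2.5 mM probenecid present; final DMSO at most 0.3%.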

[4] = Supplementary Table 2, mean ± SEM, read-out: pEC50 Ca2+ (converted)
[5] = Supplementary Table 2, mean ± SEM
[6] = Agonist mode, individual replicates (Supplementary Figure 4)
[7] = log [Compound] M = -4.5, individual replicate columns
[8] = log [Compound] M = -5.0, individual replicate columns
[9] = log [Compound] M = -5.5, individual replicate columns
[10] = log [Compound] M = -6.0, individual replicate columns
[11] = log [Compound] M = -6.5, individual replicate columns
[12] = log [Compound] M = -7.0, individual replicate columns
[13] = log [Compound] M = -7.5, individual replicate columns
[14] = log [Compound] M = -8.0, individual replicate columns
[15] = log [Compound] M = -8.5, individual replicate columns
[16] = log [Compound] M = -9.0, individual replicate columns
[17] = individual replicates (Supplementary Figure 4)
[18] = individual replicates (Supplementary Figure 5)

Structure (SMILES) | EC50 [1, 4] [nM] | Emax [1, 5] [%] | Ca2+ signal (% of Cmp 1a) [1, 6] | Ca2+ signal (% of Cmp 1a) [1, 7] | Ca2+ signal (% of Cmp 1a) [1, 8] | Ca2+ signal (% of Cmp 1a) [1, 9] | Ca2+ signal (% of Cmp 1a) [1, 10] | Ca2+ signal (% of Cmp 1a) [1, 11] | Ca2+ signal (% of Cmp 1a) [1, 12] | Ca2+ signal (% of Cmp 1a) [1, 13] | Ca2+ signal (% of Cmp 1a) [1, 14] | Ca2+ signal (% of Cmp 1a) [1, 15] | Ca2+ signal (% of Cmp 1a) [1, 16] | Ca2+ signal (% of Cmp 1a) [2, 17] | Ca2+ signal (% of Carbachol) [3, 18] | also measured
Cc1noc(C(C)NC(=O)Nc2cccc(-c3ccccc3)c2)n1 (stereo not shown) [Compound 3, CC(NC(=O)NC=1C=CC=C(C1)C=2C=CC=CC2)C3=NC(C)=NO3] | 2510 | 70 ± 3 | – | – | – | – | – | – | – | – | – | – | – | – | – | Ca2+ signal (% of Cmp 1a) ([1]; 0.1 µM, individual replicates (Supplementary Figure 3)): 5.3 % of Cmp 1a and 10.2 % of Cmp 1a; Ca2+ signal (% of Cmp 1a) ([1]; 1 µM, individual replicates (Supplementary Figure 3)): 18.7 % of Cmp 1a and 1.8 % of Cmp 1a; Ca2+ signal (% of Cmp 1a) ([1]; 10 µM, individual replicates (Supplementary Figure 3)): 46.3 % of Cmp 1a; Ca2+ signal (% of Cmp 1a) ([1]; Agonist mode, individual replicates (Supplementary Figure 1)): 55 % of Cmp 1a and 56 % of Cmp 1a and 62 % of Cmp 1a; Ca2+ signal (% of Cmp 1a) ([1]; log [Compound] M -4.5, replicate experiments): 57 % of Cmp 1a and 72 % of Cmp 1a and 70 % of Cmp 1a; Ca2+ signal (% of Cmp 1a) ([1]; log [Compound] M -5.0, replicate experiments): 55 % of Cmp 1a and 59 % of Cmp 1a and 65 % of Cmp 1a; Ca2+ signal (% of Cmp 1a) ([1]; log [Compound] M -5.5, replicate experiments): 25 % of Cmp 1a and 54 % of Cmp 1a and 37 % of Cmp 1a; Ca2+ signal (% of Cmp 1a) ([1]; log [Compound] M -6.0, replicate experiments): 11 % of Cmp 1a and 34 % of Cmp 1a and 21 % of Cmp 1a; Ca2+ signal (% of Cmp 1a) ([1]; log [Compound] M -6.5, replicate experiments): -1.52 % of Cmp 1a and 4.42 % of Cmp 1a and 16 % of Cmp 1a; Ca2+ signal (% of Cmp 1a) ([1]; log [Compound] M -7.0, replicate experiments): -7 % of Cmp 1a and -0.413 % of Cmp 1a and 6 % of Cmp 1a; Ca2+ signal (% of Cmp 1a) ([1]; log [Compound] M -7.5, replicate experiments): -4.33 % of Cmp 1a and 4 % of Cmp 1a and 8 % of Cmp 1a; Ca2+ signal (% of Cmp 1a) ([1]; log [Compound] M -8.0, replicate experiments): -1.83 % of Cmp 1a and -3.24 % of Cmp 1a and 5 % of Cmp 1a; Ca2+ signal (% of Cmp 1a) ([1]; log [Compound] M -8.5, replicate experiments): -10 % of Cmp 1a and -2 % of Cmp 1a and 4.52 % of Cmp 1a; Ca2+ signal (% of Cmp 1a) ([1]; log [Compound] M -9.0, replicate experiments): 0.621 % of Cmp 1a and -0.857 % of Cmp 1a and 2.53 % of Cmp 1a; Ca2+ signal (% of Cmp 1a) ([1]; primary screen, 10 µM compound, agonist mode, three columns = independent experiments): 55 % of Cmp 1a and 56 % of Cmp 1a and 62 % of Cmp 1a; Ca2+ signal (% of Cmp 1a) ([2]; individual replicates (Supplementary Figure 1)): 29.8327 % of Cmp 1a and 24.7661 % of Cmp 1a and 29.9717 % of Cmp 1a; Ca2+ signal (% of Carbachol) ([3]; individual replicates (Supplementary Figure 2)): -13 % of Carbachol and -10 % of Carbachol
Cc1cc(-c2nc(CC(=O)NC(C)c3ccccc3)no2)n(C)n1 (stereo not shown) [Compound 1.16, CC(C1=CC=CC=C1)NC(CC2=NOC(C3=CC(C)=NN3C)=N2)=O] | 631 | 93 ± 11 | 103 % of Cmp 1a and 82 % of Cmp 1a and 85 % of Cmp 1a | 93 % of Cmp 1a and 107 % of Cmp 1a and 110 % of Cmp 1a and 60 % of Cmp 1a | 86 % of Cmp 1a and 100 % of Cmp 1a and 83 % of Cmp 1a and 67 % of Cmp 1a | 73 % of Cmp 1a and 90 % of Cmp 1a and 92 % of Cmp 1a and 46 % of Cmp 1a | 52 % of Cmp 1a and 66 % of Cmp 1a and 72 % of Cmp 1a and 20 % of Cmp 1a | 27 % of Cmp 1a and 50 % of Cmp 1a and 60 % of Cmp 1a and -0.5 % of Cmp 1a | 9 % of Cmp 1a and 39 % of Cmp 1a and 26 % of Cmp 1a and -9.5 % of Cmp 1a | 0.333 % of Cmp 1a and 7 % of Cmp 1a and 17 % of Cmp 1a and 1.5 % of Cmp 1a | -3 % of Cmp 1a (2×) and -1 % of Cmp 1a and 9 % of Cmp 1a | 0 % of Cmp 1a and -5 % of Cmp 1a and 15 % of Cmp 1a and -2.5 % of Cmp 1a | 1.67 % of Cmp 1a and -3 % of Cmp 1a and 20 % of Cmp 1a and -7 % of Cmp 1a | 5 % of Cmp 1a and 13 % of Cmp 1a and -4.67 % of Cmp 1a | -2 % of Carbachol and 14 % of Carbachol and 5 % of Carbachol | –
Cc1nocc1-c1nc(CC(=O)NC(C)c2ccccc2)no1 (stereo not shown) [Compound 1.5, CC(C1=CC=CC=C1)NC(CC2=NOC(C3=CON=C3C)=N2)=O] | – | 103 ± 6 | 113 % of Cmp 1a and 100 % of Cmp 1a and 116 % of Cmp 1a | 80 % of Cmp 1a and 113 % of Cmp 1a and 109 % of Cmp 1a and 101 % of Cmp 1a | 104 % of Cmp 1a and 119 % of Cmp 1a and 100 % of Cmp 1a and 95 % of Cmp 1a | 91 % of Cmp 1a and 108 % of Cmp 1a and 100 % of Cmp 1a and 85 % of Cmp 1a | 78 % of Cmp 1a and 79 % of Cmp 1a and 91 % of Cmp 1a and 81 % of Cmp 1a | 55 % of Cmp 1a and 74 % of Cmp 1a and 73 % of Cmp 1a and 76 % of Cmp 1a | 36 % of Cmp 1a and 45 % of Cmp 1a and 52 % of Cmp 1a and 57 % of Cmp 1a | 14 % of Cmp 1a and 3.67 % of Cmp 1a and 9 % of Cmp 1a and 12 % of Cmp 1a | 17 % of Cmp 1a and 2 % of Cmp 1a and 47 % of Cmp 1a and -11 % of Cmp 1a | 10 % of Cmp 1a and -6.33 % of Cmp 1a and 1 % of Cmp 1a and -17 % of Cmp 1a | -2.67 % of Cmp 1a and 0.333 % of Cmp 1a and -5 % of Cmp 1a and -15 % of Cmp 1a | 3.33 % of Cmp 1a and -5.33 % of Cmp 1a and -2.33 % of Cmp 1a | 5 % of Carbachol and 6 % of Carbachol and 8 % of Carbachol | EC50 ([1]; GPR139-CHOk1, read-out: EC50, Ca2+ mobilization): 130 nM
COc1cc(-c2nc(CC(=O)NC(C)c3ccccc3)no2)ccn1 (stereo not shown) [Compound 1.7, COC1=NC=CC(C2=NC(CC(NC(C3=CC=CC=C3)C)=O)=NO2)=C1] | 200 | 113 ± 9 | 105 % of Cmp 1a and 108 % of Cmp 1a and 111 % of Cmp 1a | 109 % of Cmp 1a and 102 % of Cmp 1a and 120 % of Cmp 1a | 102 % of Cmp 1a and 110 % of Cmp 1a and 134 % of Cmp 1a | 95 % of Cmp 1a and 141 % of Cmp 1a and 154 % of Cmp 1a | 70 % of Cmp 1a and 89 % of Cmp 1a and 113 % of Cmp 1a | 61 % of Cmp 1a and 84 % of Cmp 1a and 68 % of Cmp 1a | 40 % of Cmp 1a and 48 % of Cmp 1a and 53 % of Cmp 1a | 13 % of Cmp 1a and 22 % of Cmp 1a and 34 % of Cmp 1a | 1.88 % of Cmp 1a and 6 % of Cmp 1a and 10 % of Cmp 1a | 4.28 % of Cmp 1a and 11 % of Cmp 1a and 7 % of Cmp 1a | -0.46 % of Cmp 1a and 10 % of Cmp 1a and 7 % of Cmp 1a | -1.33 % of Cmp 1a and 38 % of Cmp 1a and -9 % of Cmp 1a | -3 % of Carbachol and 5.61 % of Carbachol and 2.51 % of Carbachol | –
